Assay results as given in patent publication US4138554A, “7-[D-α-(4-Hydroxy-1,5-naphthyridine-3-carboxamido)-α-phenyl (and p-hydroxyphenyl)acetamido]-3-carbamoyloxymethyl-3-cephem-4-carboxylic acids” (priority 1977, dated 1979).
Where two headings read alike, the source gives them in different places.

System: Pseudomonas aeruginosa
Assay: MIC by agar dilution against 61 strains of Pseudomonas aeruginosa, secondary evaluation
Type: cell-based
Conditions: for MIC: Pseudomonas aeruginosa
Description: Minimum inhibitory concentrations (MIC) of BB-S520 were determined by serial two-fold agar dilution method using Steers' apparatus on Meuller-Hinton agar plate against 31 test organisms for the primary screening and also against 61 strains of Pseudomonas aeruginosa for the secondary evaluation. The results are shown in Table 1 and Table 2 along with those of BB-S514 and sulbenicillin.
Minimum inhibitory concentrations (MIC) of cephalosporins in the present study were determined by serial two-fold agar dilution method using Steers' apparatus on Mueller-Hinton agar plate against 31 test organisms for the primary screening and also against 61 strains of Pseudomonas aeruginosa for the secondary evaluation.

CCN1CCN(C(=O)NC(C(=O)N[C@@H]2C(=O)N3[C@@H]2SC(C)(C)[C@@H]3C(=O)O)c2ccccc2)C(=O)C1=O (stereo partly drawn) [T-1220]
544%: Rel. Act. (SBPC=100%) (61 strains of Pseudomonas aeruginosa, Table 7)
> 100 µg/mL: MIC (BBRI Pa-No. 10, Table 7, read-out: MIC) | MIC (BBRI Pa-No. 24, Table 7, read-out: MIC)
0.4 µg/mL: MIC (BBRI Pa-No. 36, Table 7, read-out: MIC)
6.3 µg/mL: MIC (BBRI Pa-No. 12, Table 7, read-out: MIC) | MIC (BBRI Pa-No. 15, Table 7, read-out: MIC) | MIC (BBRI Pa-No. 20, Table 7, read-out: MIC) | MIC (BBRI Pa-No. 28, CPH1C527/72, Table 7, read-out: MIC) | MIC (BBRI Pa-No. 30, Table 7, read-out: MIC) | MIC (BBRI Pa-No. 33, Table 7, read-out: MIC) | MIC (BBRI Pa-No. 35, Table 7, read-out: MIC) | MIC (BBRI Pa-No. 38, Table 7, read-out: MIC) | MIC (BBRI Pa-No. 43, Table 7, read-out: MIC) | MIC (BBRI Pa-No. 57, Table 7, read-out: MIC) | MIC (BBRI Pa-No. 58, Table 7, read-out: MIC) | MIC (BBRI Pa-No. 67, Table 7, read-out: MIC) | MIC (BBRI Pa-No. 68, Table 7, read-out: MIC) | MIC (BBRI Pa-No. 69, Table 7, read-out: MIC) | MIC (GN4925, BBRI Pa-No. 44, GN4925, Table 7, read-out: MIC)
4.3 µg/mL: MIC (61 strains of Pseudomonas aeruginosa, Table 7, read-out: Geometric Mean of MIC)
50 µg/mL: MIC (BBRI Pa-No. 18, H8 D121, Table 7, read-out: MIC)
1.6 µg/mL: MIC (BBRI Pa-No. 3, 1449VA, Table 7, read-out: MIC) | MIC (BBRI Pa-No. 5, N4865KC, Table 7, read-out: MIC) | MIC (BBRI Pa-No. 14, Table 7, read-out: MIC) | MIC (BBRI Pa-No. 25, Table 7, read-out: MIC) | MIC (BBRI Pa-No. 26, Ps32, Table 7, read-out: MIC) | MIC (BBRI Pa-No. 31, Table 7, read-out: MIC) | MIC (BBRI Pa-No. 39, Table 7, read-out: MIC) | MIC (BBRI Pa-No. 59, Table 7, read-out: MIC) | MIC (BBRI Pa-No. 65, Table 7, read-out: MIC)
12.5 µg/mL: MIC (BBRI Pa-No. 1, D15, Table 7, read-out: MIC) | MIC (BBRI Pa-No. 62, Table 7, read-out: MIC)
3.1 µg/mL: MIC (BBRI Pa-No. 2, VA, Table 7, read-out: MIC) | MIC (BBRI Pa-No. 4, H9 D113, Table 7, read-out: MIC) | MIC (BBRI Pa-No. 7, Table 7, read-out: MIC) | MIC (BBRI Pa-No. 8, Table 7, read-out: MIC) | MIC (BBRI Pa-No. 9, Yale, Table 7, read-out: MIC) | MIC (BBRI Pa-No. 11, Table 7, read-out: MIC) | MIC (BBRI Pa-No. 21, Table 7, read-out: MIC) | MIC (BBRI Pa-No. 23, Table 7, read-out: MIC) | MIC (BBRI Pa-No. 29, D122, Table 7, read-out: MIC) | MIC (BBRI Pa-No. 32, Table 7, read-out: MIC) | MIC (BBRI Pa-No. 34, Table 7, read-out: MIC) | MIC (BBRI Pa-No. 37, Table 7, read-out: MIC) | MIC (BBRI Pa-No. 41, Table 7, read-out: MIC) | MIC (BBRI Pa-No. 44 (unnamed strain), Table 7, read-out: MIC) | MIC (BBRI Pa-No. 51, Table 7, read-out: MIC) | MIC (BBRI Pa-No. 52, Table 7, read-out: MIC) | MIC (BBRI Pa-No. 53, Table 7, read-out: MIC) | MIC (BBRI Pa-No. 54, Table 7, read-out: MIC) | MIC (BBRI Pa-No. 55, Table 7, read-out: MIC) | MIC (BBRI Pa-No. 56, Table 7, read-out: MIC) | MIC (BBRI Pa-No. 60, Table 7, read-out: MIC) | MIC (BBRI Pa-No. 61, Table 7, read-out: MIC) | MIC (BBRI Pa-No. 64, Table 7, read-out: MIC) | MIC (BBRI Pa-No. 66, Table 7, read-out: MIC) | MIC (BBRI Pa-No. 70, K-Ps102(CR-102), Table 7, read-out: MIC) | MIC (GN315, BBRI Pa-No. 27, GN315, Table 7, read-out: MIC)
0.8 µg/mL: MIC (BBRI Pa-No. 16, No. 130, Table 7, read-out: MIC) | MIC (BBRI Pa-No. 19, Table 7, read-out: MIC)
25 µg/mL: MIC (BBRI Pa-No. 6, No. 5, Table 7, read-out: MIC) | MIC (BBRI Pa-No. 17, H6 D114, Table 7, read-out: MIC) | MIC (BBRI Pa-No. 42, Table 7, read-out: MIC)
